Laboratory results published in patent US4642347A, “3(2-quinolinylalkoxy)phenols” (American Home Products Corporation, priority 1985, dated 1987).
Entries after “also recorded” stand apart in the source; their conditions may differ.

How the values were obtained:
[1] = system: 5-HETE synthesis by rat glycogen-elicited polymorphonuclear leukocytes (5-lipoxygenase); assay: Inhibition of 5-HETE synthesis by rat glycogen-elicited polymorphonuclear leukocytes (A23187, [14C] arachidonic acid); format: cell-based, rat (Wistar); conditions: for IC50: Leukocyte, rat peritoneal PMN, 5-HETE synthesis, read-out: 50% Inhibitory Concentration (IC50), 5-HETE
Procedure: This is especially true with respect to 5,12-diHETE, which is also denoted as LTB4 [see Ford-Hitchinson, J. Roy. Soc. Med., 74, 831 (1981)]. The assay of this Example measures the ability of the compounds of the invention to inhibit the synthesis of 5-HETE and LTB4 by rat glycogen-elicited polymorphonuclear leukocytes.
(§1) The assay is carried out as follows:
(§2) Peritoneal PMN are obtained from female Wistar rats (150-250 g) that received an i.p. injection of 6% glycogen (10 ml). After 24 hours, rats are killed by CO2 asphyxiation and peritoneal cells are harvested by peritoneal lavage using Ca^++ and Mg^++ free Hanks' balanced salt solution (HBSS). The peritoneal exudate is centrifuged at 400 g for 10 minutes. After centrifugation, the lavaged fluid is removed and the cell pellet is resuspended in HBSS containing Ca^++ and Mg^++ and 10 mM L-cysteine at a concentration of 2×10^7 cells/ml. To 1 ml portions of cell suspension, test drugs or vehicle are added and incubated at 37° C. for 10 minutes. Following this preincubation, the calcium ionophore (10 μM), A23187, is added together with 0.5 μCi [^14 C] arachidonic acid and further incubated for 10 minutes. The reaction is stopped by the addition of ice cold water (3 ml) and acidifying to pH 3.5. Lipoxygenase products are then extracted twice into diethyl ether. The pooled ether extracts are evaporated to dryness under nitrogen and the residue is redissolved in a small volume of methanol and spotted on aluminum backed pre-coated thin layer chromatographic plates. The samples are then co-chromatographed with authentic reference 5-HETE in the solvent system--hexane:ether:acetic acid (50:50:3). After chromatography, the areas associated with 5-HETE standard are identified by autoradiography, cut out and quantitated by liquid scintillation.
Results are expressed as % inhibition of [^14 C]5-HETE synthesis. [formula]

[2] = system: TxB2 synthesis (cyclooxygenase); assay: Inhibition of synthesis of TxB2 by rat polymorphonuclear leukocytes; format: cell-based, rat (Wistar); conditions: for IC50: Leukocyte, rat PMN, TxB2, read-out: % Inhibitory Concentration (IC50), Inhibition of Synthesis of TxB2
Procedure: as §2
(§3) The procedure of Example 2 is also employed for the determination of the ability of the compounds of the invention to inhibit the synthesis of the arachidonic acid cyclooxygenase oxidation products TxB2 and PGE2.
In this assay, the procedure of Example 2 is carried out as described. […] After chromatography, the areas associated with TxB2 and PGE2 standards are identified by autoradiography, cut out and quantitated by liquid scintillation techniques.
(§4) The results are calculated as in Example 2 and presented below.

[3] = system: PGE2 synthesis (cyclooxygenase); assay: Inhibition of synthesis of PGE2 by rat polymorphonuclear leukocytes; format: cell-based, rat (Wistar); conditions: for IC50: Leukocyte, PGE2, read-out: 50% Inhibitory Concentration (IC50), Inhibition of Synthesis of PGE2; for IC50 / influence on the synthesis of PGE2 (in words): rat PMN; for cyclooxygenase inhibitory activity (in words): conclusion from TxB2 and PGE2 results
Procedure: as §2, §3
In this assay, the procedure of Example 2 is carried out as described. However, in order to determine cyclooxygenase activity, the samples are cochromatographed with authentic reference TxB2 and PGE2 in the solvent system ethyl acetate:formic acid (80:1) and the upper phase of ethyl acetate:isoctane:acetic acid:water (110:50:20:100). After chromatography, the areas associated with TxB2 and PGE2 standards are identified by autoradiography, cut out and quantitated by liquid scintillation techniques.
as §4

[4] = system: leukotrienes C4 and/or D4 induced bronchospasm; assay: In vivo inhibition of bronchospasm induced in guinea pigs by exogenously administered leukotrienes C4 and/or D4; design: species or system guinea pig (Hartley); conditions: for % Maximal Bronchoconstriction / % Inhibition: 10 minutes before induction of bronchospasm; for % Inhibition: compared to its control (*P < 0.05; ***P < 0.001); for leukotriene antagonism (in words): summary of guinea pig results
[5] = system: ovalbumin-induced bronchoconstriction; assay: In vivo inhibition of ovalbumin-induced (anaphylactic) bronchoconstriction by endogenous mediators in sensitized guinea pigs; design: species or system guinea pig (Hartley); conditions: 50 mg/kg intraduodenally, 10 minutes before i.v. ovalbumin challenge; for % Inhibition: compared to its control (*P < 0.05; ***P < 0.005)
Procedure: The assay of this Example measures the in vivo ability of the compounds of the invention to inhibit the bronchospasm induced in guinea pigs by endogenous mediators of the bronchoconstriction.
as §1
Male Hartley strain guinea pigs weighing 250-350 g are sensitized to chicken ovalbumin (OA) (10 mg i.p.) on days 1 and 3 and used starting on day 26. The animals are anesthetized with pentobarbital sodium (50 mg/kg, i.p.), bilateral vagotomy is performed, and the jugular vein is cannulated for injection of drugs and the carotid artery for monitoring blood pressure. The trachea is cannulated for artificial ventilation by miniature Starling pump and for indirect measurement of respiratory volume changes as described, infra. Succinylcholine (2 mg/kg, i.v.) is administered to arrest spontaneous respiration. A cyclooxygenase inhibitor, indomethacin (10 mg/kg in tris buffer, i.v. at 9 min.) is administered to shunt arachidonic metabolism to lipoxygenase pathways. One minute later, chlorpheniramine (1.0 mg/kg in saline, i.v.) is given to attenuate the histaminic component of anaphylactic bronchoconstriction. Test drugs (dissolved in propylene glycol, polyethylene glycol or saline) are administered either intraduodenally or by aerosol at 2 or 10 minutes before antigen challenge. Anaphylactic bronchoconstriction is induced by administration by breaths of aerosolized OA (1%) or by intravenous administration of 0.1-0.3 mg/kg OA in saline. Control animals receive solvent (2 ml/kg i.d. or appropriate aerosol) in place of drug.
Respiratory volume changes are determined by a calibrated piston whose travel is recorded, via a linear transducer, on a Beckman Dynograph recorder. Maximal bronchoconstrictor volume is determined by clamping off the trachea at the end of the experiment. Overflow volumes at minutes 1, 3 and 5 are obtained from the recorded charts.
Area under the volume overflow curve (AUC) is estimated, using the overflow values at 1, 3 and 5 minutes, and expressed as a percentage of the maximal overflow AUC (equation 1): [formula] Drug effects are reported as percent inhibition of % max AUC values obtained from appropriate control animals (equation 2): [formula] Students t-test for unpaired data is used to determine statistical significance.

| Compound | IC50 [1] | IC50 [2] | potency in inhibiting TxB2 synthesis relative to the compound of Example 1 ([2]; as potent as the compound of Example 1) | IC50 [3] | cyclooxygenase inhibitory activity (in words) [3] | influence on the synthesis of PGE2 (in words) [3] | % Maximal Bronchoconstriction ([4]; 50 mg/kg intraduodenally) | % Inhibition ([4]; 50 mg/kg intraduodenally) | leukotriene antagonism (in words) [4] | % Maximal Bronchoconstriction [5] | % Inhibition [5] | 5-lipoxygenase inhibition (in words) ([1]; conclusion from Example 2) | potency in inhibiting the synthesis of 5-HETE relative to the prior art compound ([1]; rat peritoneal neutrophils, more potent than the prior art compound) | potency as inhibitor of LTD4-induced bronchoconstriction relative to the prior art compound ([4]; times more potent than the prior art compound, 50 mg/kg intraduodenally) |
| --- | --- | --- | --- | --- | --- | --- | --- | --- | --- | --- | --- | --- | --- | --- |
| Oc1ccccc1OCc1ccc2ccccc2n1 [2-(2-quinolinylmethoxy)phenol, reference compound] | 53 µM | 6.82 µM | twice as potent | 5.82 µM | potent activity as a cyclooxygenase inhibitor | quite significantly active | 43 ± 6% | 28% | ability to block leukotriene responses | 31 ± 6% | 47% |  |  |  |
| Oc1cccc(OCc2ccc3ccccc3n2)c1 [Example 1, 3-(2-Quinolinylmethoxyl)phenol] | 6.07 µM | 14.6 µM |  | > 100 µM | little or no significant cyclooxygenase inhibitory activity | failure | 10 ± 1% | 82% | potent leukotriene antagonist | 21 ± 8% | 53% | very potent 5-lipoxygenase inhibitor; also recorded: significant 5-lipoxygenase inhibition; also recorded: strong inhibitor of 5-lipoxygenase | approximately an order of magnitude more potent | approximately three |
